The source made the active and inactive calls. No cut-off for these calls is given here.
Key:
Tyrosinase [1] = molecular target: T1, Tyrosinase (Agaricus bisporus, UniProt O42713); experiment: Inhibition of mushroom tyrosinase using L-DOPA as substrate
T1 sequence (O42713 whole entry): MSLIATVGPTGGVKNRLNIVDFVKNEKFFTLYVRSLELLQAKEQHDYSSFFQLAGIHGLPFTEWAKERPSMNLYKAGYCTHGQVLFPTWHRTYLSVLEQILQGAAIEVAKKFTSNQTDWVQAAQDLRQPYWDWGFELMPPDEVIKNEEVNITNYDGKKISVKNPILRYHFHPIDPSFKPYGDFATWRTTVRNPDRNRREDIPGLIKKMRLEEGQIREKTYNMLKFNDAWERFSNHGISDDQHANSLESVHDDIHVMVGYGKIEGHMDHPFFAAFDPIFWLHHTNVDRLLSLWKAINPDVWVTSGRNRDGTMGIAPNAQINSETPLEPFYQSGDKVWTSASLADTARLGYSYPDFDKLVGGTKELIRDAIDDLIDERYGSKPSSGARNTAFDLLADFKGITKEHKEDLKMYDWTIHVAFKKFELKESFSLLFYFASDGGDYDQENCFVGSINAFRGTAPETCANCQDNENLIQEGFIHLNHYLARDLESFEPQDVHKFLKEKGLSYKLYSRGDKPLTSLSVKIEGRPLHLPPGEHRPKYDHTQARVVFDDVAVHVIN

[2] = Cytotoxicity against mouse B16-F10 cells assessed as cell viability at 50 ug/ml measured after 24 hrs by MTT assay relative to control; type: cell-based; conditions: at 50 µg/mL, read-out: Activity
B16-F10 [3] = experiment: Cytotoxicity against mouse B16-F10 cells assessed as reduction in cell viability upto 10 ug/ml measured after 24 hrs by MTT assay; type: cell-based; conditions: b16-f10, 24 h, dose <=10 µg/ml
B16-F10 [4] = experiment: Cytotoxicity against mouse B16-F10 cells assessed as reduction in cell viability at 10 to 50 ug/ml measured after 24 hrs by MTT assay; type: cell-based; conditions: b16-f10, 24 h, dose 10-50 µg/ml
B16-F10 [5] = experiment: Anti-melanogenic activity against alpha-MSH-induced mouse B16-F10 cells assessed as reduction in melanin content at 10 uM incubated for 24 hrs […] relative to control; type: functional
Tyrosinase [6] = molecular target: T1, Tyrosinase; experiment: Noncompetitive inhibition of mushroom tyrosinase assessed as dissociation constant using L-DOPA as substrate by Lineweaver-Burk plot analysis
B16-F10 [7] = experiment: Anti-melanogenic activity in mouse B16-F10 cells assessed as reduction in alpha-MSH-induced tyrosinase expression at 10 uM incubated for 24 hrs by Western blot analysis; type: functional, cell-based
B16-F10 [8] = experiment: Anti-melanogenic activity against alpha-MSH-induced mouse B16-F10 cells assessed as reduction in melanin content at 50 uM incubated for 24 hrs […] relative to control; type: functional
B16-F10 [9] = experiment: Anti-melanogenic activity against alpha-MSH-induced mouse B16-F10 cells assessed as reduction in melanin content at 20 uM incubated for 24 hrs […] relative to control; type: functional
B16-F10 [10] = experiment: Anti-melanogenic activity in mouse B16-F10 cells assessed as reduction in alpha-MSH-induced tyrosinase expression at 20 to 30 uM incubated for 24 hrs by Western blot analysis; type: functional, cell-based; conditions: dose 20-30 µM
B16-F10 [11] = experiment: Anti-melanogenic activity in mouse B16-F10 cells assessed as reduction in alpha-MSH-induced tyrosinase expression at 50 uM incubated for 24 hrs by Western blot analysis; type: functional, cell-based
B16-F10 [12] = experiment: Anti-melanogenic activity against alpha-MSH-induced mouse B16-F10 cells assessed as reduction in melanin content at 30 uM incubated for 24 hrs […] relative to control; type: functional
[13] = compound: COc1ccccc1-c1nnc(SCC(=O)Nc2ccccc2)o1; experiment: Noncompetitive inhibition of mushroom tyrosinase assessed as Vmax at 0.0017 uM using L-DOPA as substrate by Lineweaver-Burk plot analysis; conditions: Agaricus bisporus
[14] = compound: COc1ccccc1-c1nnc(SCC(=O)Nc2ccccc2)o1; experiment: Noncompetitive inhibition of mushroom tyrosinase assessed as Km at 0.0066 uM using L-DOPA as substrate by Lineweaver-Burk plot analysis; conditions: Agaricus bisporus
[15] = compound: COc1ccccc1-c1nnc(SCC(=O)Nc2ccccc2)o1; experiment: Noncompetitive inhibition of mushroom tyrosinase assessed as Vmax at 0.0066 uM using L-DOPA as substrate by Lineweaver-Burk plot analysis; conditions: Agaricus bisporus
[16] = compound: COc1ccccc1-c1nnc(SCC(=O)Nc2ccccc2)o1; experiment: Noncompetitive inhibition of mushroom tyrosinase assessed as Km at 0.0033 uM using L-DOPA as substrate by Lineweaver-Burk plot analysis; conditions: Agaricus bisporus
[17] = compound: COc1ccccc1-c1nnc(SCC(=O)Nc2ccccc2)o1; experiment: Noncompetitive inhibition of mushroom tyrosinase assessed as Vmax at 0.0033 uM using L-DOPA as substrate by Lineweaver-Burk plot analysis; conditions: Agaricus bisporus
[18] = compound: COc1ccccc1-c1nnc(SCC(=O)Nc2ccccc2)o1; experiment: Noncompetitive inhibition of mushroom tyrosinase assessed as Km at 0.0017 uM using L-DOPA as substrate by Lineweaver-Burk plot analysis; conditions: Agaricus bisporus

O=C(CSc1nnc(-c2ccccc2)o1)Nc1ccc(I)cc1
IC50 (Tyrosinase [1]): 85 nM

COc1cccc(-c2nnc(SCC(=O)Nc3ccc(I)cc3)o2)c1
IC50 (Tyrosinase [1]): 88 nM

COc1cccc(-c2nnc(SCC(=O)Nc3ccc(Br)cc3)o2)c1
IC50 (Tyrosinase [1]): 145 nM

O=C(CSc1nnc(-c2ccccc2)o1)Nc1ccccc1
IC50 (Tyrosinase [1]): 231 nM

COc1ccccc1-c1nnc(SCC(=O)Nc2ccc(I)cc2)o1
IC50 (Tyrosinase [1]): 23 nM
viability at 24 h, 50 ug/ml [2]: 80%

COc1ccccc1-c1nnc(SCC(=O)Nc2ccc(F)cc2)o1
IC50 (Tyrosinase [1]): 18 nM
viability at 24 h, 50 ug/ml [2]: 80%

COc1cccc(-c2nnc(SCC(=O)Nc3ccc(F)cc3)o2)c1
IC50 (Tyrosinase [1]): 27 nM
Activity (B16-F10 [3]): Non-Toxic
Activity (B16-F10 [4]): Toxic

COc1cccc(-c2nnc(SCC(=O)Nc3ccccc3)o2)c1
IC50 (Tyrosinase [1]): 19 nM
Activity (B16-F10 [3]): Non-Toxic
Activity (B16-F10 [4]): Toxic

O=C(CSc1nnc(-c2ccccc2)o1)Nc1ccc(F)cc1
IC50 (Tyrosinase [1]): 396 nM

O=C(CSc1nnc(-c2ccccc2)o1)Nc1ccc(Br)cc1
IC50 (Tyrosinase [1]): 39 nM

COc1ccccc1-c1nnc(SCC(=O)Nc2ccc(Br)cc2)o1
IC50 (Tyrosinase [1]): 46 nM

COc1ccccc1-c1nnc(SCC(=O)Nc2ccccc2)o1
IC50 (Tyrosinase [1]): 3 nM
inhibition at 10 µM (B16-F10 [5]): 16%
Ki (Tyrosinase [6]): 3.1 nM
Activity (B16-F10 [7]): Active
inhibition at 50 µM (B16-F10 [8]): 78%
inhibition at 20 µM (B16-F10 [9]): 62%
Activity (B16-F10 [10]): Active
Activity (B16-F10 [11]): Active
viability at 24 h, 50 ug/ml [2]: 80%
inhibition at 30 µM (B16-F10 [12]): 77%

B1: Tyrosinase (Agaricus bisporus), O42713 (protein)
chain: MSLIATVGPTGGVKNRLNIVDFVKNEKFFTLYVRSLELLQAKEQHDYSSFFQLAGIHGLPFTEWAKERPSMNLYKAGYCTHGQVLFPTWHRTYLSVLEQILQGAAIEVAKKFTSNQTDWVQAAQDLRQPYWDWGFELMPPDEVIKNEEVNITNYDGKKISVKNPILRYHFHPIDPSFKPYGDFATWRTTVRNPDRNRREDIPGLIKKMRLEEGQIREKTYNMLKFNDAWERFSNHGISDDQHANSLESVHDDIHVMVGYGKIEGHMDHPFFAAFDPIFWLHHTNVDRLLSLWKAINPDVWVTSGRNRDGTMGIAPNAQINSETPLEPFYQSGDKVWTSASLADTARLGYSYPDFDKLVGGTKELIRDAIDDLIDERYGSKPSSGARNTAFDLLADFKGITKEHKEDLKMYDWTIHVAFKKFELKESFSLLFYFASDGGDYDQENCFVGSINAFRGTAPETCANCQDNENLIQEGFIHLNHYLARDLESFEPQDVHKFLKEKGLSYKLYSRGDKPLTSLSVKIEGRPLHLPPGEHRPKYDHTQARVVFDDVAVHVIN
Vmax [13]: 4.97 deltaA/s
Km [14]: 250 µM
Vmax [15]: 2.27 deltaA/s
Km [16]: 250 µM
Vmax [17]: 3.64 deltaA/s
Km [18]: 250 µM

From ChEMBL document CHEMBL4811286, “Novel 1,3,4-oxadiazole compounds inhibit the tyrosinase and melanin level: Synthesis, in-vitro, and in-silico studies” (Bioorg Med Chem, 2021)
